The source of these data is patent US5837729A, “Methods for treating and preventing HIV infection using acetaminophen and derivatives thereof” (priority 1996, dated 1998).

Values after ≈ are worked out from the molar mass of the structure shown. Values joined by “and” are separate entries in the source; they are usually repeats but may differ in a detail not shown here. Identical values can stand only once. “Also recorded” adds a separate entry of the source. Like-named read-outs stand apart in the source and are kept apart here.

The subject of data set [1] is HIV. The conditions noted are these: cited from earlier work.
Data set [2] deals with HIV. The experiment in a line: HIV infection of MT-4 T lymphocytes, p24 ELISA of culture supernatant on day 2. The data set is classed as cell-based. The conditions noted are these: for IC100 / IC50: Human immunodeficiency virus 1, T-lymphocyte; for IC100: 48 h; for IC50 / anti-HIV activity (in words): MT-4, p24. The procedure:
(§1) The % values on the right axis were positioned in a fashion that allows estimation of inhibitory effect of the test drug as a function of AGB concentration plotted on the horizontal axis.
(§2) The % values on the right axis were positioned in a fashion that allows estimation of the inhibitory effect of test drug as a function of EGB concentration plotted on the horizontal axis.
Indicator MT-4 T lymphocytes (10^5 cells/ml) were plated in triplicates in 96-well culture plates in the presence of serial 10-fold molar dilutions of test compound. Each culture well contained 180 μl of RPMI 1640 culture medium with 10% FBS, L-glutamine, penicillin and streptomycin. Immediately thereafter MT-4 lymphocytes were exposed to 20 μl of viral inoculum corresponding to 100 infectious units per lymphocyte as determined by limiting dilution assay. Two days later--the minimal time period corresponding to full replication cycle of HIV--the culture supernatants were collected and dose-response to drugs was quantitated by measuring the levels of cell-free p24 antigen. The amount of released virus was calculated by comparing the optical density of experimental values from treated wells to commercial p24 standards (Coulter, Hialeah, Fla.).
(§3) The serial ten-fold dilutions of AGB, virus, and cells were left without washing in the culture until tested for HIV production 2 days later. Topical contraceptive agents nonoxynol-9 and gramicidin were used as controls.
(§4) The serial ten-fold dilutions of EGB, virus, and cells were left without washing in the culture until tested for HIV production 2 days later. Topical contraceptive agents nonoxynol-9 and gramicidin were used as controls.

The next data set in a line: in vitro. The conditions noted are these: human, mt-4 cells.
Excerpt: (§5) The % values on the right axis were positioned in a fashion that allows estimation of inhibitory effect of the test drug as a function of acetaminophen concentration plotted on the horizontal axis.
as §1, §2
(§6) The toxicity of compounds was tested as follows. MT-4 lymphocytes were grown in the presence or absence of log10 dilutions of test compounds for two days. The cells were then exposed for 4 hours to the preparation of XTT tetrasolium salt (Sigma, St Louis, Mo.) containing phenazine methosulfate (Aldrich, Milwaukee, Wis.). The viability of drug-exposed cells was determined based on activity of mitochondrial […] of MT-4 converting XTT into color-dense formazan. Optical density was then determined in a plate reader at […] with reference filter at […] and compared to absorbance values of the control cells cultured without drugs. XTT test was also confirmed by trypan blue exclusion test based on the principle that nuclei of dead cells are stained blue.
as §3, §4

In data set [3] the test system is MT-4 T lymphocytes. Description: in vitro.
Excerpt: as §5, §1, §2, §6, §3, §4

For data set [4] the following is noted: cited from earlier work.
The conditions of data set [5]: cited from earlier work; for potency as experimental vaginal contraceptive, fold more potent than nonoxynol-9: versus nonoxynol-9.
In a further data set the test system is acrosin. The conditions noted are these: correlated with contraceptive effect; cited from earlier work.
The subject of the next data set is human spermatozoa. The conditions noted are these: in vitro with human spermatozoa and in animal studies; cited from earlier work.
The subject of data set [6] is MT-4 T lymphocytes. In kind it is cell-based. The procedure:
The toxicity of compounds was tested as follows.

[7] abbreviates: background, earlier work of inventor.
Setting [8] is: Table 1, MT-4, 2 days, read-out: IC100 (approximate order of anti-HIV concentration).
The mark [9] stands for this setting: p24 ELISA, MT-4 supernatant, day 2, read-out: Complete inhibition of HIV replication, concentration.

As to estrogen, the “anti-HIV effect / inhibition of HIV replication (in words)” value (“anti-HIV effect / inhibition” below) in the data set with HIV [1] (setting [7]) was “anti-HIV effect”.
`CC(=O)Nc1ccc(O)cc1` [Acetaminophen, acetaminophen]: the IC100 with HIV [2] (setting [8]) is 150 µg/mL; with HIV [2] (setting [9]), 150 µg/mL and 1000 µM. For the same compound, in the data set with HIV [2] (read-out: inhibitory concentration (IC50), 50% inhibition of de novo HIV infection), the IC50 was found to be 21 µg/mL (≈ 139 µM). Besides, in the data set on HIV [2], the “anti-HIV activity (in words)” value is “antivirally active”. In addition, the selectivity ratio in “in vitro” was not above 75. Further, in the data set on MT-4 T lymphocytes [3], the “toxicity at tested concentrations (in words)” value is “has not shown any toxicity at all tested concentrations”. Moreover, the “toxic dose-effect by XTT formazan OD (in words)” value in the data set with MT-4 T lymphocytes [3] (up to highest tested dose containing 0.5% of ethanol) was “no observable toxic dose-effect”. Besides, the “anti-inflammatory activity (in words)” value in data set [4] (human, in vivo) is on record as “no anti-inflammatory activity”. In addition, in [4] (overdose or consumption with alcohol), the “toxicity / hepatotoxicity (in words)” value was “can cause hepatotoxicity”.
As to `CN/C(=N/CCSCc1nc[nH]c1C)NC#N` [cimetidine], in the data set on HIV [1], the “anti-HIV effect / inhibition” value is given as “able to inhibit HIV replication without producing significant cytotoxicity”.
For the compound `c1ccc([C@H]2CN3CCSC3=N2)cc1` [levamisole], the “anti-HIV effect / inhibition” value with HIV [1] was “anti-HIV effect”.
`CC(=O)Nc1ccc(OC(=O)c2ccc(NC(=N)N)cc2)cc1` [AGB, 4'-acetamidophenyl 4-guanidinobenzoate]: the “antiviral potency relative to nonoxynol-9, times less potent” value with HIV [2] came out at 10 times. Further, the IC100 with HIV [2] (setting [8]) is 100 µg/mL. In addition, in the data set on HIV [2] (setting [9]), the IC100 is 100 µg/mL. Besides, the IC50 in the data set with HIV [2] (read-out: anti-HIV activity in vitro, IC50) is 14 µg/mL (≈ 44.8 µM). In addition, in the data set on HIV [2] (Table 1, CC100/IC100), the “SI, selectivity index, ratio between CC100 and IC100 values” is on record as 100. For the same compound, the “CC100 (cytotoxicity)” value in the data set on MT-4 T lymphocytes [3] (human, 2880 min) is 10000 µg. In data set [5], the “toxicity and irritation versus nonoxynol-9 (in words)” value is “far less toxic and irritating”; the “potency as experimental vaginal contraceptive, fold more potent than nonoxynol-9” value is on record as “up to 100 fold”. In the data set with acrosin, the “acrosin activity (in words)” value is given as “inhibitory action on acrosin activity”. Also, the “optimal concentration required to inhibit both acrosome reaction and sperm motility” value with human spermatozoa is 100 µg/mL.
In the case of `CCOC(=O)c1ccc(OC(=O)c2ccc(NC(=N)N)cc2)cc1` [EGB, 4'-carboethoxyphenyl 4-guanidinobenzoate], in the data set on HIV [2], the “SI, selectivity index, ratio between CC100 and IC100 values” came out at 1; the “anti-HIV activity (in words)” value was “antiviral activity was not specific and due to the death of host lymphocytes; also recorded: no effect on HIV infection at doses that were not toxic; also recorded: has not shown specific anti-HIV activity”. Further, the IC100 with HIV [2] (setting [8]) is 100 µg/mL. Besides, in the data set with MT-4 T lymphocytes [3] (human, 2880 min), the “CC100 (cytotoxicity)” value is 100 µg. The “viability of MT-4 lymphocytes by trypan blue exclusion (in words)” value in the data set with MT-4 T lymphocytes [6] is recorded as “death of MT-4 lymphocytes”. In data set [5], the “toxicity and irritation versus nonoxynol-9 (in words)” value is “far less toxic and irritating”; the “potency as experimental vaginal contraceptive, fold more potent than nonoxynol-9” value is reported as “up to 100 fold”. In addition, the “acrosin activity (in words)” value in the data set with acrosin is “inhibitory action on acrosin activity”.
Take gramicidin: the “IC100 (approximate order of anti-HIV concentration)” value with HIV [2] (Table 1, MT-4, 2 days) came to 10 ng. Further, the “CC100 (cytotoxicity)” value with MT-4 T lymphocytes [3] (Table 1, MT-4, 2 days) came to 10 µg. The “toxicity relative to AGB (in words)” value in the data set with MT-4 T lymphocytes [3] (dose compared with AGB) was “toxic at doses that are a thousand-fold lower than AGB”. For the same compound, in the data set on HIV [1] (setting [7]), the “anti-HIV effect / inhibition” value is on record as “able to inhibit HIV replication without producing significant cytotoxicity”.
In the case of `CC(=O)CC(c1ccccc1)c1c(O)c2ccccc2oc1=O` (stereo not drawn) [warfarin], the “anti-HIV effect / inhibition” value with HIV [1] (setting [7]) was “anti-HIV effect”.
For `COc1ccc2c(c1)c(CC(=O)O)c(C)n2C(=O)c1ccc(Cl)cc1` [indomethacin], the “relative anti-HIV potency (in words)” value in the data set with HIV [1] (indomethacin versus aspirin) is on record as “more potent than aspirin”.
As for `C[C@@H]1C[C@H]2[C@@H]3CCC4=CC(=O)C=C[C@]4(C)[C@@]3(F)[C@@H](O)C[C@]2(C)[C@@]1(O)C(=O)CO` [dexamethasone], in the data set with HIV [1] (setting [7]), the “anti-HIV effect / inhibition” value is reported as “anti-HIV effect”.
As for nonoxynol-9, the “IC100 (approximate order of anti-HIV concentration)” value in the data set with HIV [2] (Table 1, MT-4, 2 days) was determined as 10000 ng. Also, the “CC100 (cytotoxicity)” value with MT-4 T lymphocytes [3] (Table 1, MT-4, 2 days) worked out at 10 µg. Also, the “local toxicity (in words)” value in data set [4] (spermicidal agent, effective concentration) is listed as “local toxicity of this agent is incompatible with its antiviral activity when used at an effective concentration”.
With `CC(C)C[C@H](NC(=O)[C@@H](O)[C@H](N)Cc1ccccc1)C(=O)O` [bestatin], in the data set with HIV [1] (setting [7]), the “anti-HIV effect / inhibition” value is given as “anti-HIV effect”.
For the compound `CC(=O)[C@H]1CC[C@H]2[C@@H]3CCC4=CC(=O)CC[C@]4(C)[C@H]3CC[C@]12C` [progesterone], the “anti-HIV effect / inhibition” value with HIV [1] (setting [7]) is on record as “anti-HIV effect”.
